# In patent US9765016B2, “S1P modulating agents” (BIOGEN MA INC., priority 2013, dated 2017):
# Biological target: T1, human S1P5 (Homo sapiens, UniProt Q9H228)
# T1 construct: host or cells: recombinant CHEM cells
# Assay: Calcium flux assay, antagonist assay format (S1P receptor activity assay)
# Assay type: cell-based
# Experimental: Agonist percentage activation determinations were obtained by assaying sample compounds and referencing the Emax control for each receptor profiled. Antagonist percentage inhibition determinations were obtained by assaying sample compounds and referencing the control EC80 wells for each receptor profiled.
# Sample compounds were plated in an eight-point, four-fold dilution series in duplicate with a top concentration of 10 μM. The concentrations described here reflect the final concentration of the compounds during the antagonist assay.
# Using the EC80 values determined during the agonist assay, stimulated all pre-incubated sample compound and reference antagonist (if applicable) wells with EC80 of reference agonist.
# T1 sequence (Q9H228 whole entry): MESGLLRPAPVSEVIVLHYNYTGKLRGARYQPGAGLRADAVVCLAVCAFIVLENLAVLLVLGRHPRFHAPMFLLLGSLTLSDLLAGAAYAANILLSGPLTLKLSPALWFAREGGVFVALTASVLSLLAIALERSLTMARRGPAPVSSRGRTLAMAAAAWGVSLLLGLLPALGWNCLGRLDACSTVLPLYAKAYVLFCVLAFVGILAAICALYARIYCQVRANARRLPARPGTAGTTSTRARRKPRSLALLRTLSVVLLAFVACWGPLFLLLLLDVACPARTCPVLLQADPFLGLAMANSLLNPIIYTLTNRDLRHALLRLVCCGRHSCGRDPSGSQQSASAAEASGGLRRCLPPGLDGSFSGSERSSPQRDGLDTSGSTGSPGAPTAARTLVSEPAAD
smiles,measurement,value
"Cc1cc(O[C@H]2CC[C@@H]([Si](C)(C)C)CC2)c(CN2CCC(C(=O)O)CC2)c2ccccc12 [Example 25, 1-((4-methyl-2-((cis-4-(trimethylsilyl)cyclohexyl)oxy)naphthalen-1-yl)methyl)piperidine-4-carboxylic acid]",IC50,≤ 100 nM
